Measured values: ChEMBL document CHEMBL1153618, “Discovery of potential new InhA direct inhibitors based on pharmacophore and 3D-QSAR analysis followed by in silico screening” (Eur J Med Chem, 2009)

Target: T1, Enoyl-[acyl-carrier-protein] reductase [NADH] (Mycobacterium tuberculosis, UniProt P9WGR1)
T1 sequence (P9WGR1 whole entry): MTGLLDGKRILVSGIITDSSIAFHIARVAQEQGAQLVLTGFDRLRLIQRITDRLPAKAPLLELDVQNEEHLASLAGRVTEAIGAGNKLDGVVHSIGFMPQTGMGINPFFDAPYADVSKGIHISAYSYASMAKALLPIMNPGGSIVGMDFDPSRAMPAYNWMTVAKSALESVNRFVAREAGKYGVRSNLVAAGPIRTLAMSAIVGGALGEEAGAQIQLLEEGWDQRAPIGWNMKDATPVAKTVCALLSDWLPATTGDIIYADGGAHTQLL
Experiment: Inhibition of Mycobacterium tuberculosis InhA

Structure (SMILES)	IC50
O=C1N=C(Nc2cc(Cl)cc(Cl)c2)S/C1=C/c1ccco1	17.8 µM
O=C(Nc1cc(Cl)ccc1Cl)c1ccc(Cl)c([N+](=O)[O-])c1	20 µM
Cc1cc(Cl)ccc1OCC(=O)Nc1cccc([N+](=O)[O-])c1C	3.47 µM
COc1ccc(/C=C2/SC(N3CCCC3)=NC2=O)cc1OC	7.24 µM
COc1ccc(/C=C2\SC(N3CCCCCC3)NC2=O)cc1OC (stereo not given)	11 µM
O=C(Nc1ccc(Cl)c(Cl)c1)c1ccc(Cl)c([N+](=O)[O-])c1	52.5 µM
COC(=O)c1c(NC(=O)c2ccccc2[N+](=O)[O-])sc2c1CCC2	1.82 µM
O=C(Nc1ccc(Cl)cc1Cl)c1ccccc1[N+](=O)[O-]	20 µM
CCN(CC)c1ccc(/C=C2/N=C(c3ccccc3)OC2=O)cc1	3.31 µM
COc1ccc(/C=C2/SC(N3CCC(C)CC3)=NC2=O)cc1OC	10.7 µM
COc1cc(Cl)cc(/C=C2/SC(c3ccccc3)=NC2=O)c1O	10.5 µM
O=[N+]([O-])c1cc(/N=C/c2ccc(Cl)cc2Cl)ccc1Cl	4.68 µM
COc1cc(Cl)ccc1NC(=O)c1ccc(C)c([N+](=O)[O-])c1	5.01 µM
Cc1ccc(NC(=O)c2ccccc2[N+](=O)[O-])c(C)c1	10.5 µM
Cc1ccc(NC(=O)c2sc3ccccc3c2Cl)cc1[N+](=O)[O-]	2.14 µM
COc1ccc(OC)c(/C=N/NC2=CS(=O)(=O)c3ccccc32)c1	5.13 µM
COc1ccc(C(=O)Nc2cc(Cl)cc(Cl)c2)cc1[N+](=O)[O-]	7.08 µM
COc1ccc(/C=C2/SC(N3CCCCC3)=NC2=O)cc1OC	11.5 µM
Cc1ccc(OC(=O)c2ccccc2[N+](=O)[O-])c(Br)c1	9.55 µM
CCN(CC)c1ccc(/C=C2/SC(N3CCCCC3)=NC2=O)cc1	6.17 µM
CCOc1ccc(/C=C2/SC(c3ccccc3)=NC2=O)cc1C	10 µM
COc1ccc(C(=O)Nc2cc(Cl)ccc2Cl)cc1[N+](=O)[O-]	13.8 µM
Cc1ccc(C(=O)Nc2ccc(Cl)cc2Cl)cc1[N+](=O)[O-]	8.71 µM
CCOC(=O)C1=C(C)N/C(=C/c2cc(OC)ccc2OC)C1=O	3.63 µM
O=C(Nc1cc(Cl)c(Cl)cc1Cl)c1ccccc1[N+](=O)[O-]	12 µM
CCN(CC)c1ccc(NC(=O)c2ccccc2[N+](=O)[O-])cc1	4.37 µM
COc1ccc(Cl)cc1NC(=O)c1ccc(Cl)c([N+](=O)[O-])c1	4.07 µM
COc1cc(NC(=O)c2ccc(C)cc2[N+](=O)[O-])cc(OC)c1	1.35 µM
COc1ccc(Cl)cc1NC(=O)c1ccc(OC)c([N+](=O)[O-])c1	5.01 µM
O=C(Nc1cc(Cl)cc(Cl)c1)c1ccccc1[N+](=O)[O-]	6.17 µM
